Assay results from patent publication US10745361B2, “Piperazine derivatives having multimodal activity against pain” (ESTEVE PHARMACEUTICALS, S.A., priority 2013, dated 2020).

system: human σ1 receptor and human μ-opioid receptor; assay: Human σ1 receptor radioligand assay and human μ-opioid receptor radioligand assay (μ and σ1 dual binding); design: key to μ and σ1 dual binding: +: Both Ki-μ and Ki-σ1>=500 nM; ++: One K, <500 nM while the other K, is >=500 nM; +++: Both Ki-μ and Ki-σ1<500 nM; ++++: Both Ki-μ and Ki-σ1<100 nM; settings: one class for both Ki: σ1 ([3H](+)-pentazocine, transfected HEK-293 membranes) and μ-opioid ([3H]-DAMGO, transfected CHO-K1 membranes)
Protocol: Human σ1 Receptor Radioligand Assay
To investigate binding properties of σ1 receptor ligands to human σ1 receptor, transfected HEK-293 membranes and [^3H](+)-pentazocine (Perkin Elmer, NET-1056), as the radioligand, were used. The assay was carried out with 7 μg of membrane suspension, 5 nM of [^3H](+)-pentazocine in either absence or presence of either buffer or 10 μM Haloperidol for total and non-specific binding, respectively. Binding buffer contained Tris-HCl 50 mM at pH 8. Plates were incubated at 37° C. for 120 minutes. After the incubation period, the reaction mix was then transferred to MultiScreen HTS, FC plates (Millipore), filtered and plates were washed 3 times with ice-cold 10 mM Tris-HCL (pH7.4). Filters were dried and counted at approximately 40% efficiency in a MicroBeta scintillation counter (Perkin-Elmer) using EcoScint liquid scintillation cocktail
Human μ-Opioid Receptor Radioligand Assay
To investigate binding properties of p-opioid receptor ligands to human p-opioid receptor, transfected CHO-K1 cell membranes and [^3H]-DAMGO (Perkin Elmer, ES-542-C), as the radioligand, were used. The assay was carried out with 20 μg of membrane suspension, 1 nM of [^3H]-DAMGO in either absence or presence of either buffer or 10 μM Naloxone for total and non-specific binding, respectively. Binding buffer contained Tris-HCl 50 mM, MgCl2 5 mM at pH 7.4. Plates were incubated at 27° C. for 60 minutes. After the incubation period, the reaction mix was then transferred to MultiScreen HTS, FC plates (Millipore), filtered and plates were washed 3 times with ice-cold 10 mM Tris-HCL (pH 7.4). Filters were dried and counted at approximately 40% efficiency in a MicroBeta scintillation counter (Perkin-Elmer) using
EcoScint liquid scintillation cocktail.
The following scale as been adopted for representing the binding to the σ1 receptor and the μ-opiod receptor expressed as Ki: • + Both Ki-μ and Ki-σ1>=500 nM • ++ One K, <500 nM while the other K, is >=500 nM • +++ Both Ki-μ and Ki-σ1<500 nM • ++++ Both Ki-μ and Ki-σ1<100 nM

| Structure (SMILES) | μ and σ1 dual binding | Ki [nM] |
| --- | --- | --- |
| CC(C)S(=O)(=O)Nc1cccc(N2CC3CN(Cc4cn(-c5ccccc5F)nn4)CC3C2)n1 (stereo not shown) [Example 61, N-(6-(5-((1-(2-fluorophenyl)-1H-1,2,3-triazol-4-yl)methyl)hexahydropyrrolo[3,4-c]pyrrol-2(1H)-yl)pyridin-2-yl)propane-2-sulfonamide] | ++ |  |
| CC(C)S(=O)(=O)Nc1cccc(N2CCN(Cc3cn(-c4ccccn4)cn3)CC2)n1 [Example 62, N-(6-(4-((1-(pyridin-2-yl)-1H-imidazol-4-yl)methyl)piperazin-1-yl)pyridin-2-yl)propane-2-sulfonamide] |  | < 500 |
| Nc1cccc(N2CCN(Cc3cn(-c4ccccc4)nn3)CC2)n1 [Example 63, 6-(4-((1-phenyl-1H-1,2,3-triazol-4-yl)methyl)piperazin-1-yl)pyridin-2-amine] |  | ≥ 500 |
| O=S(=O)(Nc1cccc(N2CCN(Cc3cn(-c4ncccc4F)nn3)CC2)n1)C1CC1 [Example 64, N-(6-(4-((1-(3-fluoropyridin-2-yl)-1H-1,2,3-triazol-4-yl)methyl)piperazin-1-yl)pyridin-2-yl)cyclopropanesulfonamide] | ++ |  |
| O=S(=O)(Nc1cccc(N2CCN(Cc3cn(-c4cc(F)ccc4F)nn3)CC2)n1)C1CC1 [Example 65, N-(6-(4-((1-(2,5-difluorophenyl)-1H-1,2,3-triazol-4-yl)methyl)piperazin-1-yl)pyridin-2-yl)cyclopropanesulfonamide] | ++ |  |
| Cc1ccc(F)c(-n2cc(CN3CCN(c4cccc(NS(=O)(=O)C5CC5)n4)CC3)nn2)c1 [Example 66, N-(6-(4-((1-(2-fluoro-5-methylphenyl)-1H-1,2,3-triazol-4-yl)methyl)piperazin-1-yl)pyridin-2-yl)cyclopropanesulfonamide] | ++ |  |
| O=S(=O)(Nc1cccc(N2CCN(Cc3cn(-c4ccc(C(F)(F)F)cn4)nn3)CC2)n1)C1CC1 [Example 67, N-(6-(4-((1-(5-(trifluoromethyl)pyridin-2-yl)-1H-1,2,3-triazol-4-yl)methyl)piperazin-1-yl)pyridin-2-yl)cyclopropanesulfonamide] | ++ |  |
| O=S(=O)(Nc1cccc(N2CCN(Cc3cn(-c4ccc(C(F)(F)F)cc4)nn3)CC2)n1)C1CC1 [Example 68, N-(6-(4-((1-(4-(trifluoromethyl)phenyl)-1H-1,2,3-triazol-4-yl)methyl)piperazin-1-yl)pyridin-2-yl)cyclopropanesulfonamide] | ++ |  |
| O=S(=O)(Nc1cccc(N2CCN(Cc3cn(-c4ccc(C(F)(F)F)cc4F)nn3)CC2)n1)C1CC1 [Example 69, N-(6-(4-((1-(2-fluoro-4-(trifluoromethyl)phenyl)-1H-1,2,3-triazol-4-yl)methyl)piperazin-1-yl)pyridin-2-yl)cyclopropanesulfonamide] | ++ |  |
| O=S(=O)(Nc1cccc(N2CCN(Cc3cn(-c4ccccc4)cn3)CC2)n1)C1CC1 [Example 70, N-(6-(4-((1-phenyl-1H-imidazol-4-yl)methyl)piperazin-1-yl)pyridin-2-yl)cyclopropanesulfonamide] |  | < 500 |
| O=S(=O)(Nc1cccc(N2CCN(Cc3cn(-c4ccccc4F)cn3)CC2)n1)C1CC1 [Example 71, N-(6-(4-((1-(2-fluorophenyl)-1H-imidazol-4-yl)methyl)piperazin-1-yl)pyridin-2-yl)cyclopropanesulfonamide] |  | < 500 |
| Nc1cccc(N2CCN(Cc3cn(-c4ccccc4F)nn3)CC2)n1 [Example 72, 6-(4-((1-(2-fluorophenyl)-1H-1,2,3-triazol-4-yl)methyl)piperazin-1-yl)pyridin-2-amine] | ++ |  |
| O=S(=O)(Nc1cccc(N2CCN(Cc3cn(-c4ccccn4)cn3)CC2)n1)C1CC1 [Example 73, N-(6-(4-((1-(pyridin-2-yl)-1H-imidazol-4-yl)methyl)piperazin-1-yl)pyridin-2-yl)cyclopropanesulfonamide] |  | < 500 |
